The values that follow come from ChEMBL document CHEMBL1146688, “Aminoimidazoles as bioisosteres of acylguanidines: novel, potent, selective and orally bioavailable inhibitors of the sodium hydrogen exchanger isoform-1” (Bioorg Med Chem Lett, 2004).

Data set [1] concerns the target Sodium/hydrogen exchanger 1 (Homo sapiens, UniProt P19634). Briefly: Inhibition of sodium dependent recovery of pH following imposed acidosis in AP1 cell line expressing the human NHE-1 isoform. Format: functional, cell-based.
The nature of data set [2]: Plasma half life in rat at oral dose 2.8 mg/mk body weight. Type of data set: ADME, organism-based.
Data set [3] can be described thus: Oral bioavailability in rat (dose 2.8 mg/kg p.o.). The note with it: in vivo. Format: ADME, organism-based.

Sodium/hydrogen exchanger 1, sequence (P19634 whole entry, canonical isoform): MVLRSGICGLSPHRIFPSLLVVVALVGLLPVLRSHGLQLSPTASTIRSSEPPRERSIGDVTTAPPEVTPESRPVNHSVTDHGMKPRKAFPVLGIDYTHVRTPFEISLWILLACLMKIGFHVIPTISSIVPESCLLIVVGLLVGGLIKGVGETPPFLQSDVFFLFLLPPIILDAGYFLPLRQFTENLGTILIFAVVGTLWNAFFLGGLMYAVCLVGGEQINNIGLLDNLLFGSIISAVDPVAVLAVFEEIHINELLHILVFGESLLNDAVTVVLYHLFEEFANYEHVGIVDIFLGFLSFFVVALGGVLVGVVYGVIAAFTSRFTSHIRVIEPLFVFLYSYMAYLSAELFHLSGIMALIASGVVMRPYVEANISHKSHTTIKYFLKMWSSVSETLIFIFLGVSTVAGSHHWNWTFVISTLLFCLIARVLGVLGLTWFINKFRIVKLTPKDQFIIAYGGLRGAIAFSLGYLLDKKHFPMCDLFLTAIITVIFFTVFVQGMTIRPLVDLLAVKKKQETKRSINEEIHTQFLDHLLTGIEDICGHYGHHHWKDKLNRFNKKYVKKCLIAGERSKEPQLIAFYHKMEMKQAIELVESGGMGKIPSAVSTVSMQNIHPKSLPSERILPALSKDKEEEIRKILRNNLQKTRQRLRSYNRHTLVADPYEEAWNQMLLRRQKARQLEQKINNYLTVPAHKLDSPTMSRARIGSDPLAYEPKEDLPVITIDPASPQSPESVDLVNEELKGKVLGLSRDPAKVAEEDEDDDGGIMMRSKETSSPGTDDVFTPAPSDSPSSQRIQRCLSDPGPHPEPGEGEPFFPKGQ

In data set [1], `CC1(C)[C@H](c2c[nH]cn2)[C@H]1c1cccc2c1CCO2` registered a concentration for half-maximal inhibition (IC50) of more than 30 µM.
Turning to `Cc1[nH]c(N)nc1[C@@H]1[C@@H](c2cccc3c2CCO3)C1(C)C`, in data set [1], 2.6 µM corresponded to half-maximal inhibition (IC50). That is a single-digit micromolar value.
Same read-out and setting: in the case of `CC1(C)[C@H](c2cnc(N)s2)[C@H]1c1cccc2c1CCO2` it was more than 30 µM; in that of `CSc1nccn1[C@@H]1[C@@H](c2cccc(Cl)c2)C1(C)C`, 4.85 µM.
On the same count and under the same terms, in the case of `CC1(C)[C@H](c2c[nH]c(N)n2)[C@H]1c1cccc2c1CCO2` it was 3.8 µM; in that of `CC1(C)[C@H](c2nc(N)no2)[C@H]1c1cccc2c1CCO2`, 30 µM.
`Cc1[nH]cnc1[C@@H]1[C@@H](c2cccc3c2CCO3)C1(C)C`: the IC50 in data set [1] came to 11 µM.
In the case of `CC1(C)C(c2cccc(Cl)c2)[C@H]1C(=O)NC(=N)N` (single isomer, unassigned), the half-life in data set [2] is 5 h. The molecule further registered a bioavailability in data set [3] of 26%. Also, the 50% inhibitory concentration (IC50) in data set [1] worked out at 0.021 µM.
With `Cc1[nH]cnc1[C@@H]1C(c2cc(Cl)cc(Cl)c2)C1(C)C` (single isomer, unassigned), half-maximal inhibition in data set [1] (IC50) was put at 0.95 µM.
In data set [1], `CC1(C)C(c2cc(Cl)cc(Cl)c2)[C@H]1c1cnc(N)s1` (single isomer, unassigned) registered an IC50 of more than 30 µM.
On the same count and under the same terms, in the case of `CC1(C)C(c2cc(Cl)cc(Cl)c2)[C@H]1c1c[nH]c(N)n1` (single isomer, unassigned) it was 0.18 µM; in that of `CC1(C)C(c2cc(Cl)cc(Cl)c2)[C@H]1c1cc(N)nc(N)n1` (single isomer, unassigned), 3.6 µM; in that of `CC1(C)C(c2cccc(Cl)c2)[C@H]1c1cnc(N)s1` (single isomer, unassigned), 8 µM.
The same measure, in the same setting: in the case of `CC1(C)C(c2cccc(Cl)c2)[C@H]1c1c[nH]c(N)n1` (single isomer, unassigned) it was 0.75 µM; in that of `Cc1[nH]c(N)nc1[C@@H]1C(c2cc(Cl)cc(Cl)c2)C1(C)C` (single isomer, unassigned), 0.008 µM; in that of `CC1(C)C(c2cc(Cl)cc(Cl)c2)[C@H]1c1cnc[nH]1` (single isomer, unassigned), 4 µM.
In data set [2], `Cc1nc(N)[nH]c1[C@@H]1C(c2cccc(Cl)c2)C1(C)C` (single isomer, unassigned) showed a half-life of 5 h. In data set [3], the bioavailability came out at 26%. Moreover, the IC50 in data set [1] was found to be 0.039 µM.
